Values of other authors in patent US12648912B2 (Mylan Laboratories Limited, priority 2020, dated 2026).

Columns and labels:
[1] = not given; remark: listed apart in the source

Cc1cnc(NC(=O)C2=C(O)c3ccccc3S(=O)(=O)N2C)s1 [Meloxicam, 4-hydroxy-2-methyl-N-(5-methyl-2-thiazolyl)-2H-1,2-benzothiazine-3-carboxamide-1,1-dioxide]
Tmax in fasted state relative to after breakfast (15 mg tablets, fasted state): doubled
Tmax (time to reach maximum concentration) (orally delivered, humans): 4 to 6 h
second meloxicam concentration peak, time post-dose (post-dose, suggested gastrointestinal recirculation): 12 to 14 h
solubility in methanol ([1]; methanol): very slightly soluble
solubility in water ([1]; water): practically insoluble
